# Measurements published in patent publication US20180163250A1, “Screening Broths Comprising Esculatin Compounds for the Detection of Specific Microorganisms” (Neogen Corporation, priority 2016, published 2018).
# Where a name gives a salt, the structure may show the parent alone.
# Key:
# Type in all cases: cell-based
# [1] = system: Listeria monocytogenes, NCTC5348 and NCTC10527; assay: Pre- and post-incubation detection of enzymatic activity in Listeria express broth (LAB589)
# Procedure: 3,4-cyclohexenoesculatin glucoside, was dissolved at 200 mg/ml in 50:50 mixture of dimethylformamide and water. The mixture was then added to pre-dispensed 10 ml volume samples of Listeria express broth (LAB589 from Lab M limited) as 25 μL additions from the prepared stock solutions. Additional broth samples without added chromogen were prepared and inoculated at the same time as the chromogen containing samples. The stock solution was then stored at −20° C. for 24 hours. A 0.5 Macfarlane standard suspension of Listeria monocytogenes, NCTC5348 and NCTC10527, was prepared from 18-24 hour cultures grown in tryptic soy broth (LAB004 from Lab M Limited) at 37° C. These were diluted so as to inoculate each sample with 100-1000 or 10,000-100,000 cfu. Samples were then incubated at 37° C. for 24 hours. The samples were then observed, and bacterial growth confirmed. 50 μL of a 250/mg/ml stock solution of ferric ammonium citrate was then added to each sample. Samples without 3,4-cyclohexenoesculatin glucoside chromogen were then supplemented with 25 μL additions from the stored 3,4-cyclohexenoesculatin glucoside stock solution and observed at ambient temperature for 30 minutes.
# [2] = system: Listeria monocytogenes NCTC 10257; assay: Masking of fluorogenic reaction by CHE glucoside and ferric ammonium citrate in broth; details: uv light
# Procedure: 4-methylumbelliferyl-β-D glucopyranoside (MC633 from Sigma Aldrich) was dissolved in water at 100 mg/ml and 25 μL of this stock solution added to pre-dispensed 10 mL volumes of Lab589 (Lab M Limited) and Lab049 (Brain heart infusion broth Lab M limited). Listeria monocytogenes NCTC 10257 were prepared from 18-24 hour cultures grown in tryptic soy broth (LAB004 from Lab M Limited) at 37° C. These were diluted so as to inoculate each sample with 100-1000 cfu. Samples were then incubated at 37° C. for 24 hours. Samples were then observed and confirmed for bacterial growth, and further observed under an ultra violet light for fluorescence. The samples were then supplemented with 3,4-cyclohexenoesculatin glucoside (Biosynth C9218), from a 200 mg/ml in 50:50 mixture of dimethylformamide and water. 50 μL of a 250/mg/ml stock solution of ferric ammonium citrate was added to each sample, observing visually for blackening and under ultra violet light for fluorescence masking after 15 minutes incubation at ambient. Table 5 provides that 3,4-cyclohexenoesculatin glucoside can be used as an additional masking reagent to confirm fluorogenic based broth systems.
# [3] = system: methicillin resistant staphylococcus aureus strains; assay: Growth and initial color change in MRSA screening broth (LAB588) containing the substrate; details: for Initial color change indicating the presence of MRSA: LAB588 broth with cefoxitin, 100-1000 cfu
# Procedure: (§1) CHE-phosphate, and 3,4-cyclohexenoesculatin diphosphate were dissolved at 200 mg/ml in a 50:50 mixture of dimethylformamide and water. 5-bromo-4-chloroindoxyl phosphate was dissolved at 200 mg/ml in a 50:50 mixture of ethanol and water. The mixtures of compounds were added individually to a MRSA broth (LAB588; Lab M limited) pre-dispensed to 10 ml volumes, after supplementation with cefoxitin selective agent, as 25 μL additions from the prepared stock solutions.
# (§2) A 0.5 Macfarlane standard suspension of methicillin resistant staphylococcus aureus strains were prepared from 18-24 h cultures grown in tryptic soy broth (LAB004; Lab M Limited) at 37° C. These were diluted and added to the MRSA broth samples in an amount sufficient to inoculate each sample with 100-1000 colony forming units (cfu). Target concentration was achieved by diluting a culture to a target level and inoculating sets of tubes at different inoculum dilutions so as to achieve the target range. The actual quantity inoculated was confirmed by plating 50 μl of the dilution onto Tryptone soy agar (LAB011) and incubating the plates for 18-24 h at 37° C. and counting the resulting colonies. This information was used to determine which tubes had been inoculated within the target dosing range.
# (§3) The broth is designed to selectively indicate a positive presence of MRSA by a yellow color, or a presumptive positive presence of MRSA by an orange color (Table 1). To the CHE-phosphate and 3,4-cyclohexenoesculatin diphosphate was added 50 μL of a 250/mg/ml stock solution of Ferric ammonium citrate and samples were allowed to incubate at ambient temperature for 5 minutes.
# [4] = system: phosphatase activity of methicillin resistant staphylococcus aureus; assay: Blackening after addition of ferric ammonium citrate (free CHE, phosphatase activity) in MRSA broth; details: for Color or masking reaction (blackening reaction, dark precipitate): MRSA broth, after ferric ammonium citrate; for blackening after the addition of ferric ammonium citrate indicating the presence of free 3,4-cyclohexenoesculatin: 5 minutes at ambient temperature after FAC
# Procedure: as §1, §2, §3
# [5] = L. monocytogenes NCTC 5348 100 cfu, glucoside added post incubation
# [6] = L. monocytogenes NCTC 5348 100 cfu, glucoside added pre incubation
# [7] = L. monocytogenes NCTC 5348 10000 cfu, glucoside added post incubation
# [8] = L. monocytogenes NCTC 5348 10000 cfu, glucoside added pre incubation
# [9] = L. monocytogenes NCTC 10527 100 cfu, glucoside added post incubation
# [10] = L. monocytogenes NCTC 10527 100 cfu, glucoside added pre incubation
# [11] = L. monocytogenes NCTC 10527 10000 cfu, glucoside added post incubation
# [12] = L. monocytogenes NCTC 10527 10000 cfu, glucoside added pre incubation
structure (smiles),measurement,setting,value
"O=c1oc2cc(O)c(O[C@@H]3O[C@H](CO)[C@@H](O)[C@H](O)[C@H]3O)cc2c2c1CCCC2 [3,4-cyclohexenoesculatin glucoside]",Color t = 0 minutes post iron addition,[1]; [5],yellow
same,Color t = 15 minutes post iron addition,[1]; [5],Black
same,Color t = 0 minutes post iron addition,[1]; [6],Black
same,Color t = 15 minutes post iron addition,[1]; [6],Black
same,Color t = 0 minutes post iron addition,[1]; [7],yellow
same,Color t = 15 minutes post iron addition,[1]; [7],Black
same,Color t = 0 minutes post iron addition,[1]; [8],Black
same,Color t = 15 minutes post iron addition,[1]; [8],Black
same,Color t = 0 minutes post iron addition,[1]; [9],yellow
same,Color t = 15 minutes post iron addition,[1]; [9],Black
same,Color t = 0 minutes post iron addition,[1]; [10],Black
same,Color t = 15 minutes post iron addition,[1]; [10],Black
same,Color t = 0 minutes post iron addition,[1]; [11],yellow
same,Color t = 15 minutes post iron addition,[1]; [11],Black
same,Color t = 0 minutes post iron addition,[1]; [12],Black
same,Color t = 15 minutes post iron addition,[1]; [12],Black
same,Time to strong black reaction,[1]; glucoside added post incubation,about 15 minutes
same,Time to strong black reaction on the addition of ferric ammonium citrate,[1]; samples incubated with the glucoside,instantly
Cc1cc(=O)oc2cc(O[C@@H]3O[C@H](CO)[C@@H](O)[C@H](O)[C@H]3O)ccc12 [4-methylumbelliferyl-β-D glucopyranoside],Appearance T = 15 minutes post iron addition,[2]; LAB049 broth,fluorescent under uv light
same,Appearance t = 0 minutes post iron addition,[2]; LAB049 broth,fluorescent under uv light
same,Appearance T = 15 minutes post iron addition,[2]; LAb589 broth,fluorescent under uv light
same,Appearance t = 0 minutes post iron addition,[2]; LAb589 broth,fluorescent under uv light
"O=P(O)(O)Oc1c[nH]c2ccc(Br)c(Cl)c12 [Indoxyl phosphate, 5-bromo-4-chloroindoxyl phosphate, reference compound]",Initial color change indicating the presence of MRSA,[3]; MRSA 3,Growth (orange)
same,Initial color change indicating the presence of MRSA,[3]; MRSA 15,Growth (orange)
same,Initial color change indicating the presence of MRSA,[3]; MRSA 15A (clinical isolate),Growth (orange)
same,Initial color change indicating the presence of MRSA,[3]; MRSA 15B (clinical isolate),Growth (orange)
same,Initial color change indicating the presence of MRSA,[3]; MRSA 15C (clinical isolate),Growth (orange)
same,Initial color change indicating the presence of MRSA,[3]; MRSA 16A (clinical isolate),Growth (orange)
same,Initial color change indicating the presence of MRSA,[3]; MRSA 16B (clinical isolate),Growth (orange)
same,Initial color change indicating the presence of MRSA,[3]; MRSA 16C (clinical isolate),Growth (orange)
same,Initial color change indicating the presence of MRSA,[3]; S. aureus NCTC 12493,Growth (orange)
same,"Color or masking reaction (blackening reaction, dark precipitate)",[4],no detectable color or masking reaction
"O=c1oc2cc(OP(=O)(O)O)c(OP(=O)(O)O)cc2c2c1CCCC2 [Diphosphate, 3,4-cyclohexenoesculatin diphosphate tetra-potassium salt]",Initial color change indicating the presence of MRSA,[3]; MRSA 3,Growth (yellow)
same,Initial color change indicating the presence of MRSA,[3]; MRSA 15,Growth (yellow)
same,Initial color change indicating the presence of MRSA,[3]; MRSA 15A (clinical isolate),Growth (yellow)
same,Initial color change indicating the presence of MRSA,[3]; MRSA 15B (clinical isolate),Growth (yellow)
same,Initial color change indicating the presence of MRSA,[3]; MRSA 15C (clinical isolate),Growth (yellow)
same,Initial color change indicating the presence of MRSA,[3]; MRSA 16A (clinical isolate),Growth (yellow)
same,Initial color change indicating the presence of MRSA,[3]; MRSA 16B (clinical isolate),Growth (yellow)
same,Initial color change indicating the presence of MRSA,[3]; MRSA 16C (clinical isolate),Growth (yellow)
same,Inhibition of the growth of MRSA,"[3]; MRSA broth LAB588, summary of Table 1",not inhibitory
same,Initial color change indicating the presence of MRSA,[3]; S. aureus NCTC 12493,Growth (yellow)
same,"blackening after the addition of ferric ammonium citrate indicating the presence of free 3,4-cyclohexenoesculatin",[4]; MRSA 3,No change
same,"blackening after the addition of ferric ammonium citrate indicating the presence of free 3,4-cyclohexenoesculatin",[4]; MRSA 15,No change
same,"blackening after the addition of ferric ammonium citrate indicating the presence of free 3,4-cyclohexenoesculatin",[4]; MRSA 15A (clinical isolate),No change
same,"blackening after the addition of ferric ammonium citrate indicating the presence of free 3,4-cyclohexenoesculatin",[4]; MRSA 15B (clinical isolate),No change
same,"blackening after the addition of ferric ammonium citrate indicating the presence of free 3,4-cyclohexenoesculatin",[4]; MRSA 15 C (clinical isolate),No change
same,"blackening after the addition of ferric ammonium citrate indicating the presence of free 3,4-cyclohexenoesculatin",[4]; MRSA 16A (clinical isolate),No change
same,"blackening after the addition of ferric ammonium citrate indicating the presence of free 3,4-cyclohexenoesculatin",[4]; MRSA 16B (clinical isolate),No change
same,"blackening after the addition of ferric ammonium citrate indicating the presence of free 3,4-cyclohexenoesculatin",[4]; MRSA 16 C (clinical isolate),No change
same,"Color or masking reaction (blackening reaction, dark precipitate)",[4],does not produce the same dark precipitate
same,"blackening after the addition of ferric ammonium citrate indicating the presence of free 3,4-cyclohexenoesculatin",[4]; S. aureus NCTC 12493,No change
